1 molecule from patent publication US9309537B2, “Chimeric rat produced using rat embryonic stem cells in the presence of an ES cell differentiation suppressant” (National Cancer Center, priority 2009, dated 2016) can be followed below.

The test system of the assay is rat ES cells. The assay can be described thus: Culture of established rat ES cells with PAC factor or Y factor alone (colony morphology, alkaline phosphatase). The class given is cell-based. To be noted: ES cell culture medium on MEF.

Consider `C[C@@H](N)[C@H]1CC[C@H](C(=O)Nc2ccncc2)CC1` [Y, Y-27632], for which the alkaline phosphatase activity result is on record as “did not exhibit alkaline phosphatase activity”; the “undifferentiated state and colony morphology of established rat ES cells” value is “unable to maintain the undifferentiation state”.
